Measurements taken from publication PMC11435058, “Synthesis of New Thiazole-Privileged Chalcones as Tubulin Polymerization Inhibitors with Potential Anticancer Activities” (Pharmaceuticals, 2024).
Like-named read-outs stand apart in the source and are kept apart here.

Tests used:
HCT-15 = test: NCI-60 anticancer screen (SRB; single dose and five doses); details: Homo sapiens, HCT-15, 48 h, read-out: Growth Percentage
LOX IMVI = test: as above; details: Homo sapiens, 48 h, read-out: Growth Percentage
MDA-MB-435 = test: as above; details: Homo sapiens, MDA-MB-435, 48 h, read-out: Growth Percentage
U251 = test: as above; details: Homo sapiens, U-251, 48 h, read-out: Growth Percentage
TK-10 = test: as above; details: Homo sapiens, TK-10, 48 h, read-out: Growth Percentage
HCT-116 = test: as above; details: Homo sapiens, HCT-116, 48 h, read-out: Growth Percentage
HL-60(TB) = test: as above; details: Homo sapiens, HL-60, 48 h, read-out: Growth Percentage
OVCAR-4 = test: as above; details: Homo sapiens, OVCAR-4, 48 h, read-out: Growth Percentage
MOLT-4 = test: as above; details: Homo sapiens, MOLT-4, 48 h, read-out: Growth Percentage
HCC-2998 = test: as above; details: Homo sapiens, HCC 2998, 48 h, read-out: Growth Percentage
UACC-257 = test: as above; details: Homo sapiens, UACC-257, 48 h, read-out: Growth Percentage
NCI/ADR-RES = test: as above; details: Homo sapiens, 48 h, read-out: Growth Percentage
MCF7 = test: as above; details: Homo sapiens, MCF7, 48 h, read-out: Growth Percentage
OVCAR-3 = test: cells; details: Homo sapiens, OVCAR-3, 48 h, read-out: Growth Percentage
SK-MEL-5 = test: NCI-60 anticancer screen (SRB; single dose and five doses); details: Homo sapiens, SK-MEL-5, 48 h, read-out: Growth Percentage
K-562 = test: as above; details: Homo sapiens, K562, 48 h, read-out: Growth Percentage
HT29 = test: as above; details: Homo sapiens, HT-29, 48 h, read-out: Growth Percentage
OVCAR-5 = test: as above; details: Homo sapiens, OVCAR-5, 48 h, read-out: Growth Percentage
NCI-H226 = test: as above; details: Homo sapiens, NCI-H226, 48 h, read-out: Growth Percentage
786-0 = test: as above; details: Homo sapiens, 786-0, 48 h, read-out: Growth Percentage
KM12 = test: as above; details: Homo sapiens, KM12, 48 h, read-out: Growth Percentage
SNB-19 = test: cells; details: Homo sapiens, SNB-19, 48 h, read-out: Growth Percentage
UO-31 = test: NCI-60 anticancer screen (SRB; single dose and five doses); details: Homo sapiens, UO-31, 48 h, read-out: Growth Percentage
MALME-3M = test: as above; details: Homo sapiens, 48 h, read-out: Growth Percentage
A549/ATCC = test: as above; details: Homo sapiens, A549, 48 h, read-out: Growth Percentage
NCI-H522 = test: as above; details: Homo sapiens, NCI-H522, 48 h, read-out: Growth Percentage
[1] = test system: 60 human tumor cell lines panel; test: NCI-60 anticancer screen, whole panel (means and ranges over the cell lines); type: cell-based; details: Homo sapiens, 48 h
SK-OV-3 = test: NCI-60 anticancer screen (SRB; single dose and five doses); details: Homo sapiens, SK-OV-3, 48 h, read-out: Growth Percentage
T-47D = test: as above; details: Homo sapiens, T47D, 48 h, read-out: Growth Percentage
[2] = mean over the tested cell lines, dose of 10 μM, read-out: Mean growth percentage
[3] = range over the cell lines, dose of 10 μM, read-out: growth percentages against most of the tested cells (lowest to highest)

| SMILES | activity at 10 µM (HCT-15) [%] | activity at 10 µM (LOX IMVI) [%] | activity at 10 µM (MDA-MB-435) [%] | activity at 10 µM (U251) [%] | activity at 10 µM (TK-10) [%] | activity at 10 µM (HCT-116) [%] | activity at 10 µM (HL-60(TB)) [%] | activity at 10 µM (OVCAR-4) [%] | activity at 10 µM (MOLT-4) [%] | activity at 10 µM (HCC-2998) [%] | activity at 10 µM (UACC-257) [%] | activity at 10 µM (NCI/ADR-RES) [%] | activity at 10 µM (MCF7) [%] | activity at 10 µM (OVCAR-3) [%] | activity at 10 µM (SK-MEL-5) [%] | activity at 10 µM (K-562) [%] | activity at 10 µM (OVCAR-5) [%] | activity at 10 µM (NCI-H226) [%] | activity at 10 µM (KM12) [%] | activity at 10 µM (SNB-19) [%] | further results |
| --- | --- | --- | --- | --- | --- | --- | --- | --- | --- | --- | --- | --- | --- | --- | --- | --- | --- | --- | --- | --- | --- |
| Cc1[nH]c(=S)sc1C(=O)/C=C/c1ccccc1 [2a, (E)-1-(4-Methyl-2-Thioxo-2,3-Dihydrothiazol-5-yl)-3-Phenylprop-2-En-1-One] | 35 | 31.1 | 50.1 | 56.9 | 80.3 | 49.4 | 49.6 | 76.4 | 74.2 | 91.3 | 76.2 | 64.8 | 19.8 | 42.7 | 68.8 | 51 | 129 | 96.5 | 29 | 66.8 | activity at 10 µM (HT29): 99.7%; activity at 10 µM (786-0): 68.1%; activity at 10 µM (UO-31): 39.3%; activity at 10 µM (MALME-3M): 87.8%; activity at 10 µM (A549/ATCC): 82.3%; activity at 10 µM (NCI-H522): 71.7%; activity at 10 µM [1, 2]: 65%; activity at 10 µM [1, 3]: 14.1 to 129% |
| COc1ccc(/C=C/C(=O)c2sc(=S)[nH]c2C)cc1 [2l, (E)-3-(4-Methoxyphenyl)-1-(4-Methyl-2-Thioxo-2,3-Dihydrothiazol-5-yl)Prop-2-En-1-One] | 50.8 | 44.2 | 63.9 | 62.3 | 80.9 | 76 | 58.5 | 72.3 | 81.5 | 101 | 68 | 76.4 | 30.8 | 66.9 | 55.9 | 56.6 | 145 | 93.6 | 42.2 | 75.6 | activity at 10 µM (HT29): 96.8%; activity at 10 µM (786-0): 78.1%; activity at 10 µM (UO-31): 49%; activity at 10 µM (MALME-3M): 90%; activity at 10 µM (A549/ATCC): 82.9%; activity at 10 µM (NCI-H522): 61.4%; activity at 10 µM ([1]; read-out: growth percentages against most of the tested cells (lowest to highest)): 15.1 to 120%; activity at 10 µM [1, 2]: 74.6% |
| COc1cccc(/C=C/C(=O)c2sc(=S)[nH]c2C)c1OC [2m, (E)-3-(2,3-Dimethoxyphenyl)-1-(4-Methyl-2-Thioxo-2,3-Dihydrothiazol-5-yl)Prop-2-En-1-One] | 32.7 | 21.7 | 51.9 | 20.3 | 64.5 | 46.5 | 12.7 | 62.2 | 36.8 | 79.8 | 35.4 | 30.9 | 16.6 | 24.3 | 23.5 | 27.5 | 81.7 | 90.8 | 25.3 | 37.2 | activity at 10 µM (SK-OV-3): 85.6%; activity at 10 µM (T-47D): 34.5%; activity at 10 µM (UO-31): 53.7%; activity at 10 µM (MALME-3M): 97.1%; activity at 10 µM (A549/ATCC): 43.1%; activity at 10 µM (NCI-H522): 32.9%; activity at 10 µM [1, 2]: 49.9%; activity at 10 µM [1, 3]: 5.15 to 109% |
